From patent US12503453B2, “USP7 inhibition” (Dana-Farber Cancer Institute, Inc., priority 2018, dated 2025)

Columns and labels:
[1] = test system: Ewing sarcoma cell lines, TP53 WT and mutant; conditions: recently reported study; cited from earlier work
[2] = test system: Ewing sarcoma cell lines, TP53 WT and mutant; assay: Cell proliferation (CellTiter-Glo), panel of Ewing sarcoma cell lines; assay type: cell-based; conditions: same set of cell lines
Protocol: Cells were plated in 384-well culture-treated plates and allowed to settle overnight. After drug treatment and appropriate incubation time, cell viability was assessed using the CellTiter-Glo Luminescent Cell Viability Assay (Promega). Luminescence was read on a Fluostar Omega Reader (BMG Labtech).

[3] = molecular target: full length USP7 (Homo sapiens (Human), UniProt Q93009); assay: Ub-AMC kinetic assay (ki and kinact); assay type: biochemical; conditions: pre-incubation 5 min-3 hours; read-out: inhibition constant (Ki)
Chain of full length USP7 (Q93009 whole entry): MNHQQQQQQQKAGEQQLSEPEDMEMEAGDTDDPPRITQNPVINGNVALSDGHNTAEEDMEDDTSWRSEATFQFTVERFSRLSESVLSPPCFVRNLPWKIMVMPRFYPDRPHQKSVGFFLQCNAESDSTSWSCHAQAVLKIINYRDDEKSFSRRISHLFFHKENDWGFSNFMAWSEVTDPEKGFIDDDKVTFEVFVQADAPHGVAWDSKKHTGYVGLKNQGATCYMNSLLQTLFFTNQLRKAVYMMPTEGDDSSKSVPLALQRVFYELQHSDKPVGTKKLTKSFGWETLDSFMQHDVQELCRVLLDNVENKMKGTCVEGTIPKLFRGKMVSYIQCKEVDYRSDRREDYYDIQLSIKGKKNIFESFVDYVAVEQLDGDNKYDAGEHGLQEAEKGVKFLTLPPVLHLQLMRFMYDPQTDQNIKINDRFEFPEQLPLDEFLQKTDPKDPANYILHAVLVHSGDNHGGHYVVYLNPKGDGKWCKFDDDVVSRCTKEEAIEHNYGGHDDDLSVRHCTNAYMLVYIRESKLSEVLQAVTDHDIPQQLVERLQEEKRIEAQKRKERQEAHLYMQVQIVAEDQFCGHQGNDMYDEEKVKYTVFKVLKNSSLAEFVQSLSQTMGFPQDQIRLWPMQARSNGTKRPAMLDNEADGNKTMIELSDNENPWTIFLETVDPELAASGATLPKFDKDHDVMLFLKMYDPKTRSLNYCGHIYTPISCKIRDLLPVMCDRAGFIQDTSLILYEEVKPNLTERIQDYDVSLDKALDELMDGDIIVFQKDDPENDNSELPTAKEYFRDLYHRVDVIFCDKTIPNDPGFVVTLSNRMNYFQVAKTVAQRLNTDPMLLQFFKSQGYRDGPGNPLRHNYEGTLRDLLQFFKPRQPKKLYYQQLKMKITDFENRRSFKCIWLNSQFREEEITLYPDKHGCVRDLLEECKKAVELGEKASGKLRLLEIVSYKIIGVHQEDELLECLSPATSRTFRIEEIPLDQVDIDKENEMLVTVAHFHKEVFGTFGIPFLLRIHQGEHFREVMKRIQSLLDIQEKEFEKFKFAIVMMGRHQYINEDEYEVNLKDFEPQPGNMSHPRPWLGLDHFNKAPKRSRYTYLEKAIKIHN
Protocol: Full length USP7 was tested for its activity in Ubiquitin-AMC assay in presence or absence of inhibitors. USP7 (5 nM) was pre-incubated for 6 hours at room temperature with different concentrations of inhibitors or DMSO as a control in 50 mM HEPES pH 7.5, 0.5 mM EDTA, 11 μM ovalbumin, and 5 mM DTT. Ubiquitin-AMC (Boston Biochem) was then added to a final concentration of 500 nM. The initial rate of the reaction was measured by collecting fluorescence data at one minute intervals over 30-minute period using a Clariostar fluorescence plate reader at excitation and emission wavelength of 345 and 445 nm respectively. The calculated initial rate values were plotted against inhibitor concentrations to determine IC50s. All the experimental data were plotted using Prism GraphPad. All assays for each compound were performed at least twice for each compound.
To determine kobs, the time course curves were fit to the equation y=ymax(1−exp(−kobs·x)). The kobs values were then plotted against the inhibitor concentrations and fit to the equation y=kinact/(1+(ki/x)) to obtain the values for ki and kinact.

Ki [3] [nM]	Structure (SMILES)	activity against WT and TP53-KO Ewing Sarcoma cells [1]	specificity for TP53-WT expressing cells [2]
	CC(=O)c1cc([N+](=O)[O-])c(Sc2cccc(Cl)c2Cl)s1 [P5091]	equipotent activity against WT and TP53-KO Ewing Sarcoma cells	little to no specificity for TP53-WT expressing cells
2.8 ± 1.8	CN1CCN(CCC(=O)Nc2ccc3c(=O)n(CC4(O)CCN(C(=O)CCCCNC(=O)c5ccc6c(Cl)c7c(nc6c5)CCCC7)CC4)cnc3c2)CC1 [compound 1, 9-chloro-N-(5-(4-hydroxy-4-((7-(3-(4-methylpiperazin-1-yl)propanamido)-4-oxoquinazolin-3(4H)-yl)methyl)piperidin-1-yl)-5-oxopentyl)-5,6,7,8-tetrahydroacridine-3-carboxamide]		
